Laboratory results taken from ChEMBL document CHEMBL1138583, “Pharmacophore modeling study based on known spleen tyrosine kinase inhibitors together with virtual screening for identifying novel inhibitors” (Bioorg Med Chem Lett, 2009).

Legend:
[1] = biological target: T1, Tyrosine-protein kinase SYK (Homo sapiens, UniProt P43405); experiment: Inhibition of recombinant Syk
[2] = biological target: T1, Tyrosine-protein kinase SYK; experiment: Inhibition of recombinant Syk at 10 uM

COc1cc(Nc2nc(NC3CCCC[C@H]3N)n3nc(-c4cccc(O)c4)nc3c2C(N)=O)cc(OC)c1 (stereo partly drawn)
IC50 [1]: 7 nM

O=[N+]([O-])c1ccccc1COc1ccc(Nc2nccc(-c3nccs3)n2)cc1
IC50 [1]: 2000 nM

c1cncc(Oc2cccc(Nc3nccc(-c4nccs4)n3)c2)c1
IC50 [1]: 500 nM

Cc1cc(Nc2nn(C(C)C)c(=O)c3cc(N4CCN(C)CC4)ccc23)[nH]n1
IC50 [1]: 5360 nM

COc1cccc2cc(C(N)=O)/c(=N/c3ccc(-c4ccccc4)cc3)oc12
inhibition [2]: 63%

O=C1NC(=O)N(c2cccc(Cl)c2)C(=O)/C1=C\Nc1ccc(Cl)cc1[N+](=O)[O-]
inhibition [2]: 51%

CC(C)Oc1cccc(Nc2nc(NCCN)ncc2C(N)=O)c1
IC50 [1]: 72 nM

Cc1cc(Nc2nn(C(C)C)c(=O)c3cc(N4CCOCC4)ccc23)[nH]n1
IC50 [1]: 1100 nM

COc1cc(/C=C/[N+](=O)[O-])ccc1O
IC50 [1]: 76000 nM

CC(C)c1cccc(Nc2nc(NCCN)ncc2C(N)=O)c1
IC50 [1]: 92 nM

Cc1c(/C=C2/C(=O)Nc3ccc(S(N)(=O)=O)cc32)c2ccccc2n1C
IC50 [1]: 4000 nM

CS(=O)(=O)c1cccc(Oc2cccc(Nc3nccc(-c4nccs4)n3)c2)c1
IC50 [1]: 500 nM

COc1c(C[C@@H](C)OC(=O)Oc2ccc(O)cc2)c2c3c(C[C@@H](C)OC(=O)c4ccccc4)c(OC)c(=O)c4c(O)cc(OC)c(c5c(OC)cc(O)c(c1=O)c52)c43 [CALPHOSTIN C]
IC50 [1]: 1100 nM

COc1cc(Nc2nc(NC3CCCC[C@H]3N)n3cnnc3c2C(N)=O)cc(OC)c1 (stereo partly drawn)
IC50 [1]: 3.7 nM

Fc1ccc(Nc2nccc(-c3nccs3)n2)cc1
IC50 [1]: 1000 nM

COc1cc(Nc2nc(NC3CCCC[C@H]3N)n3ncnc3c2C(N)=O)cc(OC)c1 (stereo partly drawn)
IC50 [1]: 1 nM

N#Cc1cccc(Nc2nc(NCCN)ncc2C(N)=O)c1
IC50 [1]: 110 nM

c1ccc(Oc2cccc(Nc3nccc(-c4nccs4)n3)c2)cc1
IC50 [1]: 1000 nM

Cc1ncc(C(N)=O)c(Nc2cccc(C(F)(F)F)c2)n1
IC50 [1]: 5000 nM

CCc1cc(NCC(C)(C)N)n2nc(Nc3cc(OC)cc(OC)c3)c(C(N)=O)c2n1
IC50 [1]: 3890 nM

COc1cc(Nc2nc(NC3CCCCC[C@H]3N)n3ccnc3c2C(N)=O)cc(OC)c1 (stereo partly drawn)
IC50 [1]: 1.6 nM

c1cc(COc2ccc(Nc3nccc(-c4nccs4)n3)cc2)ccn1
IC50 [1]: 2000 nM

Cc1cc(Nc2nn(CC3CCCNC3)c(=O)c3ccccc23)[nH]n1 (stereo not drawn)
IC50 [1]: 6530 nM

NCCNc1ncc(C(N)=O)c(Nc2ccccc2)n1
IC50 [1]: 280 nM

c1ccn(CCOc2ccc(Nc3nccc(-c4nccs4)n3)cc2)c1
IC50 [1]: 500 nM

COc1ccc(CNS(=O)(=O)c2ccc3c(c2)/C(=C/c2cn(C)c4ccc(OC)cc24)C(=O)N3)cc1
IC50 [1]: 4000 nM

CN(C)CCN(C)c1ncc(C(N)=O)c(Nc2cccc(C(F)(F)F)c2)n1
IC50 [1]: 10000 nM

COc1cc(Nc2nc(N[C@@H]3CCCC[C@@H]3N)n3ncnc3c2C(N)=O)cc(OC)c1
IC50 [1]: 4 nM

N#C/C(=C\c1ccc(O)c(O)c1)C(N)=S [TYRPHOSTIN 47]
IC50 [1]: 38000 nM

COCCOc1ccc2c(Nc3cc(C)[nH]n3)nn(C(C)C)c(=O)c2c1
IC50 [1]: 894 nM

Cc1cc(C)cc(Nc2nc(CC3CCCC[C@H]3N)n3ccnc3c2C(N)=O)c1 (stereo partly drawn)
IC50 [1]: 2.5 nM

c1c[nH]c(-c2ccnc(Nc3ccc(Oc4ccc5c(c4)OCO5)cc3)n2)c1
IC50 [1]: 500 nM

NC(=O)c1cncnc1Nc1cccc(C(F)(F)F)c1
IC50 [1]: 5000 nM

COc1cc(Nc2nc(NC3CCCC[C@H]3N)n3nc(C)nc3c2C(N)=O)cc(OC)c1 (stereo partly drawn)
IC50 [1]: 11.2 nM

NCCCNc1nc(-c2cccc(C(F)(F)F)c2)cc2ncccc12
IC50 [1]: 830 nM

Cc1cc(Nc2nccc(-c3nccs3)n2)cc(C(F)(F)F)c1
IC50 [1]: 110 nM

COC(=O)c1ccccc1-c1ccc(/C=C2/SC(=S)N(Cc3ccccc3)C2=O)o1
IC50 [1]: 4000 nM

COc1cc(/C=C/[N+](=O)[O-])ccc1OC(=O)c1ccccc1
IC50 [1]: 3800 nM

Nc1ccccc1COc1ccc(Nc2nccc(-c3nccs3)n2)cc1
IC50 [1]: 500 nM

c1cc(-c2nccs2)nc(Nc2ccc(OCC3CCCCC3)cc2)n1
IC50 [1]: 2000 nM

CCOc1cccc(Nc2nc(NCCN)ncc2C(N)=O)c1
IC50 [1]: 81 nM

Cc1cc(C)cc(Nc2nc(N[C@H](CN)c3ccccc3)n3ccnc3c2C(N)=O)c1
IC50 [1]: 21 nM

COC(=O)c1ccc(COc2ccc(Nc3nccc(-c4nccs4)n3)cc2)cc1
IC50 [1]: 2000 nM

c1ccc(COc2cccc(Nc3nccc(-c4nccs4)n3)c2)cc1
IC50 [1]: 500 nM

Cc1cc(C)cc(Nc2nccc(-c3nc(C)cs3)n2)c1
IC50 [1]: 56 nM

Oc1ccc(Nc2nccc(-c3nccs3)n2)cc1
IC50 [1]: 500 nM

OCCCOc1cc(Nc2nccc(-c3nccs3)n2)cc(C(F)(F)F)c1
IC50 [1]: 26 nM

Cc1cc(Nc2nccc(-c3nc(C)c(CCO)s3)n2)cc(C(F)(F)F)c1
IC50 [1]: 22 nM

FC(F)(F)c1ccc(Nc2nccc(-c3nccs3)n2)cc1
IC50 [1]: 500 nM

CN(C)c1ccc(-c2cc3ncccc3c(NC(C)(C)CN)n2)cc1
IC50 [1]: 310 nM

c1ccc(COc2ccc(Nc3nccc(-c4nccs4)n3)cc2)cc1
IC50 [1]: 1000 nM

NCCCNc1ncc(C(N)=O)c(Nc2cccc(C(F)(F)F)c2)n1
IC50 [1]: 230 nM

COc1cc(Nc2nc(N[C@@H]3CCCC[C@@H]3N)n3cnnc3c2C(N)=O)cc(OC)c1
IC50 [1]: 9 nM

Cc1cc(C)cc(Nc2nccc(-c3nc(C)c(CCO)s3)n2)c1
IC50 [1]: 32 nM

CCc1cccc(Nc2nc(NCCN)ncc2C(N)=O)c1
IC50 [1]: 53 nM

c1ccc2cc(Nc3nccc(-c4nccs4)n3)ccc2c1
IC50 [1]: 2000 nM

Cc1ccc(C)c(Nc2nccc(-c3nccs3)n2)c1
IC50 [1]: 1820 nM

Cc1cccc(Nc2nc(N[C@@H]3CCCC[C@@H]3N)ccc2C(N)=O)c1
IC50 [1]: 50 nM
